This assay concerns MCF-7 cell-derived mammospheres. Description: Mammosphere formation, MCF-7-derived. It is filed as cell-based, human. As to the method:
FIGS. 4A, 4B and 4C show effects of PAA on formation of MCF-7 cell-derived mammospheres. Primary mammospheres were cultured together with PAA (0.2 and 0.5 mM) or DMSO;
Human breast cancer cells, i.e., MCF-7 and MDA-MB-231, were commercially obtained from American Type Culture Collection (ATCC; Manassas, Va., USA). MCF-7 and MDA-MB-231 cells were cultured in Dulbecco's modified essential medium (DMEM; Hyclone, Logan, Utah, USA) containing 10% fetal bovine serum (FBS; Hyclone), 100 U/mL of penicillin, and 100 μg/mL of streptomycin (Hyclone). The MCF-7 and MDA-MB-231 cells were maintained at 37° C. in a 5% CO2-containing humidified incubator. The cells were plated at a density of 1×10^6 on a 10 cm petri dish. In order to establish primary mammospheres, single cell-suspended MCF-7 and MDA-MB-231 cells were seeded at a density (cells/well) of 3.5×10^4 to 4×10^4 and 0.5×10^4 to 1×10^4, respectively, on ultra-low attachment 6-well plates containing 2 ml complete MammoCult™ medium (StemCell Technologies, Vancouver, BC, Canada). The complete MammoCult™ medium was supplemented with 4 μg/mL of heparin, 0.48 μg/mL of hydrocortisone, 100 U/mL of penicillin and 100 μg/mL of streptomycin. The cells were cultured for 7 days in a 37° C. 5% CO2 incubator.
At 7 days of culture, the cell culture plate was disposed on a scanner (Epson Perfection V700 PHOTO, Epson Korea, Co, Seoul, Korea) to obtain an 8 bit gray scale image of mammospheres. The image was obtained at a low resolution (300 dpi) using an NICE software program and downloaded from ftp://ftp.nist.gov/pub/physics/mLclarke/NICE. For counting, preferred numbers of rows and columns (for example, 2×3 of 6-well plate) were selected to form regions of interest (ROIs), and an oval setting of the NICE program was selected and then respective ROIs were defined by moving the shapes of provided ROIs and controlling the sizes thereof. The background signal of the image was negated using a critical algorithm and the selected image was automatically counted. Regarding the mammosphere formation analysis, formation efficiency of mammospheres (MFE, %) was determined in accordance with the number of mammospheres per well/the total number of cells plated per well×100.

With `O=CCc1ccccc1` [PAA, phenylacetaldehyde], the size of mammospheres result (MCF-7-derived, 7 days) was “reduced”. In addition, the “formation of primary mammospheres derived from MCF-7 cells” value (volatile materials exposed to MCF-7 (FIG. 5B)) was “potently inhibited”.

The values are drawn from patent publication US11324706B2, “Composition for inhibiting growth of breast cancer stem cells containing phenylacetaldehyde” (JEJU NATIONAL UNIVERSITY INDUSTRY-ACADEMIC COOPERATION …, priority 2016, dated 2022).
